Tested on: human neutrophil adhesion to TNFα, IL-1α, and LPS-stimulated human umbilical vein endothelial cells
Experiment: Inhibition of human neutrophil adhesion to stimulated HUVEC (51Cr-labeled neutrophils)
Type: cell-based
From the text: METHOD FOR DETERMINING THE INHIBITION OF HUMAN NEUTROPHIL ADHESION TO TNFα, IL-1α, AND LPS-STIMULATED HUMAN UMBILICAL VEIN ENDOTHELIAL CELLS BY 3-ALKYLOXY-, ARYLOXY-, OR ARYLALKYLOXY BENZO[b]THIOPHENE-2-CARBOXAMIDES
Neutrophils were isolated from anticoagulant-treated venous blood obtained from healthy human volunteers according to the method of Ferrante and Thong (J. Immunol. Methods 1978;24:389-93).
Second passage human umbilical vein endothelial cells (HUVEC) (Clonetics, San Diego, Calif.) were seeded into Falcon 24-well cell culture plates (Becton Dickinson, Lincoln Park, N.J.) at approximately 2×10^4 cells per well. The cells were grown to confluent monolayers in endothelial basal medium (EBM, Clonetics) supplemented with 5% fetal calf serum (Hyclone Laboratories, Logan, Utah), 10 ng/mL EGF, 1 μg/mL hydrocortisone, 0.4% bovine brain extract (Clonetics) in 5% CO2 at 37° C.
Neutrophils (30×10^6) were labeled for 60 minutes at 37° C. with 100 μCi Na^51 CrO4 (ICN Biomedicals, Costa Mesa, Calif.) in 2.0 mL Ca^2+ - and Mg^2+ -free Hanks' balanced salt solution (HBSS, GIBCO Laboratories, Grand Island, N.Y.). The cells were washed two times in HBSS and suspended in unsupplemented EBM.
Stimulation of HUVEC with tumor necrosis factor-α (TNFα) (Genzyme, Cambridge, Mass.) , interleukin (IL-1α) (Genzyrne) or E. coli 0111:B4 lipopolysaccharide (LPS) (Sigma) in the presence or absence of drug was initiated 4 hours prior to the addition of neutrophils. The suspension medium was unsupplemented EBM or supplemented EBM for studies with cytokines or LPS, respectively. […] Immediately prior to addition of ^51 Cr-labeled neutrophils to the HUVEC monolayers, the cultures were washed with 1 mL unsupplemented media to remove stimulus and/or drug. Neutrophils (5×10^5) were then added to the HUVEC in 0.5 mL unsupplemented media and incubated at 37° C. for 30 minutes. Nonadherent neutrophils were removed by aspiration. Following an additional wash, adherent neutrophils were lysed with 0.5 mL 1N NH4 OH overnight at 37° C. Lysates were collected and the radioactivity in each well was determined by gamma ray spectroscopy.

| Structure (SMILES) | inhibition at 100 µM (Table 1, at 100 μM) [%] | inhibition at 100 µM (Table 2, at 100 μM) [%] | other results |
| --- | --- | --- | --- |
| CC(C)Oc1c(C(N)=O)sc2ccc(Cl)cc12 [Example 3, 5-Chloro-3-(1-methylethoxy)benzo[b]thiophene-2-carboxamide] | 72 | – | – |
| COC(=O)Cc1cccc(NC(=O)c2sc3ccc(OC)cc3c2OC(C)C)c1 [Example 19, Methyl 3-[[[5-Methoxy-3-(1-methylethoxy)benzo[b]thien-2-yl]carbonyl]amino]benzeneacetate] | – | 45 | – |
| COc1ccc2sc(C(=O)NCCCCC(=O)O)c(OC(C)C)c2c1 [Example 22, 5-[[[5-Methoxy-3-(1-methylethoxy)benzo[b]thien2-yl]carbonyl]amino]pentanoicacid] | – | 9 | – |
| COc1ccc2sc(C(=O)Nc3cccc(C(=O)O)c3)c(OC(C)C)c2c1 [Example 13, 3-[[[5-Methoxy-3-(1-methylethoxy)benzo[b]thien-2-yl]carbonyl]amino]benzoic acid] | – | 28 | – |
| COc1cccc2c(OC(C)C)c(C(N)=O)sc12 [Example 6, 7-Methoxy-3-(1-methylethoxy)benzo[b]thiophene2-carboxamide] | 35 | – | – |
| COc1ccc2sc(C(=O)NCc3ccc(C(=O)O)cc3)c(OC(C)C)c2c1 [Example 16, 4-[[[5-Methoxy-3-(1-methylethoxy)benzo[b]thien-2-yl]carbonyl]aminomethyl]benzoic acid] | – | 47 | – |
| Cc1ccc2sc(C(N)=O)c(OC(C)C)c2c1 [Example 4, 5-Methyl-3-(1-methylethoxy)benzo[b]thiophene-2-carboxamide] | 61 | – | – |
| COc1ccc2sc(C(=O)Nc3ccsc3C(=O)O)c(OC(C)C)c2c1 [Example 23] | – | 20 | – |
| CC(C)Oc1c(C(N)=O)sc2cc(Cl)ccc12 [Example 31, 6-Chloro-3-(1-thylethoxy)benzo[b]thiophene-2-carboxamide] | 26 | – | – |
| CNC(=O)c1sc2ccc(OC)cc2c1OC(C)C [Example 24] | – | 78 | – |
| COc1ccc2c(OC(C)C)c(C(N)=O)sc2c1 [Example 11, 6-Methoxy-3-(1-methylethoxy)benzo[b]thiophene-2-carboxamide] | 24 | – | – |
| COc1ccc2sc(C(=O)Nc3ccccc3)c(OC(C)C)c2c1 [Example 26, 5-Methoxy-3-(1-methylethoxy)-N-phenylbenzo[b]thiophene-2-carboxaraide] | – | 12 | – |
| COC(=O)Cc1ccc(NC(=O)c2sc3ccc(OC)cc3c2OC(C)C)cc1 [Example 17] | – | 27 | – |
| CC(C)Oc1c(C(N)=O)sc2ccc(N)cc12 [Example 32, 5-Amino-3-(1-methylethoxy)benzo[b]thiophene-2-carboxamide] | 49 | – | – |
| COc1ccc2sc(C(=O)Nc3ccccc3C(=O)O)c(OC(C)C)c2c1 [Example 15, 2-[[[5-Methoxy-3-(1-methylethoxy)benzo[b]thien2-yl]carbonyl]amino]benzoic acid] | – | 35 | – |
| CCNC(=O)c1sc2ccc(OC)cc2c1OC(C)C [Example 25] | – | 64 | – |
| CC(C)Oc1c(C(N)=O)sc2ccc([N+](=O)[O-])cc12 [Example 5, 3-(1-Methylethoxy)-5-nitrobenzo[b]thiophene2-carboxamide] | 40 | – | – |
| CCOC(=O)c1ccccc1NC(=O)c1sc2ccc(OC)cc2c1OC(C)C [Example 14] | – | 32 | – |
| CC(C)Oc1c(C(N)=O)sc2ccc(O)cc12 [Example 10, 5-Hydroxy-3-(1-methylethoxy)benzo[b]thiophene-2-carboxamide] | – | – | IC50 (Table 1): 1200 nM |
| COc1ccc2sc(C(=O)Nc3ccc(CC(=O)O)cc3)c(OC(C)C)c2c1 [Example 18, 4-[[[5-Methoxy-3-(1-methylethoxy)benzo[b]thien2-yl]carbonyl]amino]benzeneacetic acid] | – | 32 | – |
| COC(=O)CCCNC(=O)c1sc2ccc(OC)cc2c1OC(C)C [Example 33, Methyl 4-[[[5-methoxy-3-(1-methylethoxy)benzo[b]thien-2-yl]carbonyl]amino]butanoate] | – | 100 | – |

— patent US5356926A, “3-alkyloxy-, aryloxy-, or arylalkyloxy-benzo [β]thiophene-2-carboxamides as inhibitors of cell adhesion” (Warner-Lambert Company, priority 1993, dated 1994)
